Experimental data: paper PMC8434050, “Design, Synthesis and SAR in 2,4,7-Trisubstituted Pyrido[3,2-d]Pyrimidine Series as Novel PI3K/mTOR Inhibitors” (Molecules, 2021)

Legend:
[1] = system: mammary carcinoma MDA-MB231; test: Cytotoxic assay on MDA-MB231; format: cell-based; conditions: Homo sapiens, MDA-MB-231; 48 h of treatment, cell number by Hoechst nuclei staining, mean of triplicate
Protocol: (§1) Cell culture. Skin normal fibroblastic cells were purchased from Lonza (Basel, Switzerland), HuH7, Caco-2, MDA-MB-231 and Hacat cancer cell lines were obtained from the ECACC collection (Porton Down, UK). Cells were grown at 37 °C, 5% CO2 in ECACC recommended media: DMEM for HuH7, MDA-MB-231 and fibroblast, EMEM for CaCo-2 and Hacat. All culture media were supplemented by 10% of FBS, 1% of penicillin-streptomycin and 2 mM glutamine.
(§2) Cytotoxic assay. Chemicals were solubilized in DMSO at a concentration of 10 mM (stock solution) and diluted in culture medium to the desired final concentrations. […] Cells were plated in 96-well plates (4000 cells/well). Twenty-four hours after seeding, cells were exposed to chemicals. After 48h of treatment, cells were washed in PBS and fixed in cooled 90% ethanol/5% acetic acid for 20 min and the nuclei were stained with Hoechst 33,342 (B2261 Sigma). Image acquisition and analysis were performed using a Cellomics ArrayScan VTI/HCS Reader (ThermoScientific). The survival percentages were calculated as the percentage of cell number after compound treatment over cell number after DMSO treatment. The relative IC50 were calculated using the curve fitting XLfit 5.5.0.5 (idbs) integrated in Microsoft Excel as an add-on. The 4 Parameter Logistic Model or Sigmoidal Dose-Response Model was used (fit = (A + ((B − A)/(1 + ((C/x)^D))))).

normal human fibroblast = test: Cytotoxic assay on fibroblasts; format: cell-based; conditions: 48 h of treatment, cell number by Hoechst nuclei staining, mean of triplicate
Protocol: as §1, §2

mTOR = mTOR (Homo sapiens, UniProt P42345); test: mTOR kinase assay (LANCE Ultra kit; capillary electrophoresis assay); format: biochemical; conditions: selectivity index, IC50 mTOR / IC50 PI3Kα
Protocol: The amount of antibody bound to the peptide is directly related to its rate of phosphorylation. […] The experimental process was the following: inhibitor solution (2.5 µL) was injected in a plate followed by the addition of 2.5 µL of mTOR, and ATP/peptide (2.5 µL) solutions. After incubating for two hours at room temperature with no agitation and with the plate sealed, the kinase reaction was stopped by adding 5 μL of a solution at 32 mM EDTA. After 5 min of plate agitation, the detection solution (CR97-100, Perkin-Elmer) containing the antibody (5 μL) was added in each well to yield a final concentration of 2 nM of the antibody. The plate was sealed and incubated for the optimal time of 1h at room temperature without shaking before the assay readout at 665 nm.
The CE system used was a 1600 Hewlett Packard^3DCE (Agilent, Waldbronn, Germany) equipped with a photodiode array detection system. […]
All solutions were prepared with pure water, filtered through 0.45 µm PVDF Filter and stored at 4 °C. […] Their pH was measured with a MeterLab PHM201 Portable pH-Meter (Radiometer Analytical, Villeurbanne, France). […]

PI3Kβ = PI3Kβ (Homo sapiens, UniProt P42338); test: PI3K isoform kinase assay, β (CE-assay); format: biochemical; conditions: read-out: IC50 on PI3K Isoforms, β
Protocol: (§3) The CE system used was a 1600 Hewlett Packard^3DCE (Agilent, Waldbronn, Germany) equipped with a photodiode array detection system. Agilent software 3D-CE Chemstation (rev B.04.02) was used to pilot the CE system and for signal acquisition. CE analyses were performed in silica capillaries (66 cm total length, 57.5 cm effective length, 50 µm i.d.) purchased from Polymicro Technologies (Phoenix, AZ, USA). New capillaries were conditioned by 1.0 M NaOH for 30 min and water for 5 min. They were then coated by rinsing with cationic PDADMAC solution (0.2% w/v). The separation was conducted at −30 kV (reverse polarity) and at 30 °C. All rinse cycles were carried out at 4 bars. Between runs, the capillary was flushed for 1 min with water, 2 min with PDADMAC and 3 min with BGE.
(§4) All solutions were prepared with pure water, filtered through 0.45 µm PVDF Filter and stored at 4 °C. For PI3K and mTOR assays, the incubation buffer was HEPES/NaOH/MgCl2 (25 mM/8.84 mM/5 mM). Its pH was 7.2 and ionic strength was about 60 mM. […] Their pH was measured with a MeterLab PHM201 Portable pH-Meter (Radiometer Analytical, Villeurbanne, France). […]
(§5) In all enzymatic assays, after incubation, the electric field (of −30 kV) was applied to separate the ADP formed during the enzymatic reaction from the other reactants. ADP was detected at 254 nm for quantification. […]

PI3Kγ = PI3Kγ (Homo sapiens, UniProt P48736); test: PI3K isoform kinase assay, γ (CE-assay); format: biochemical; conditions: read-out: IC50 on PI3K Isoforms, γ
Protocol: as §3, §4, §5

PI3Kδ = PI3Kδ (Homo sapiens, UniProt O00329); test: PI3K isoform kinase assay, δ (CE-assay); format: biochemical; conditions: read-out: IC50 on PI3K Isoforms, δ
Protocol: as §3, §4, §5

PI3Kα = PI3Kα (Homo sapiens, UniProt P42336); test: PI3Kα kinase assay (Adapta TR-FRET kit; capillary electrophoresis assay); format: biochemical; conditions: for IC50: mean of a triplicate experiment, standard deviation in small letters
Chain of PI3Kα (P42336 whole entry): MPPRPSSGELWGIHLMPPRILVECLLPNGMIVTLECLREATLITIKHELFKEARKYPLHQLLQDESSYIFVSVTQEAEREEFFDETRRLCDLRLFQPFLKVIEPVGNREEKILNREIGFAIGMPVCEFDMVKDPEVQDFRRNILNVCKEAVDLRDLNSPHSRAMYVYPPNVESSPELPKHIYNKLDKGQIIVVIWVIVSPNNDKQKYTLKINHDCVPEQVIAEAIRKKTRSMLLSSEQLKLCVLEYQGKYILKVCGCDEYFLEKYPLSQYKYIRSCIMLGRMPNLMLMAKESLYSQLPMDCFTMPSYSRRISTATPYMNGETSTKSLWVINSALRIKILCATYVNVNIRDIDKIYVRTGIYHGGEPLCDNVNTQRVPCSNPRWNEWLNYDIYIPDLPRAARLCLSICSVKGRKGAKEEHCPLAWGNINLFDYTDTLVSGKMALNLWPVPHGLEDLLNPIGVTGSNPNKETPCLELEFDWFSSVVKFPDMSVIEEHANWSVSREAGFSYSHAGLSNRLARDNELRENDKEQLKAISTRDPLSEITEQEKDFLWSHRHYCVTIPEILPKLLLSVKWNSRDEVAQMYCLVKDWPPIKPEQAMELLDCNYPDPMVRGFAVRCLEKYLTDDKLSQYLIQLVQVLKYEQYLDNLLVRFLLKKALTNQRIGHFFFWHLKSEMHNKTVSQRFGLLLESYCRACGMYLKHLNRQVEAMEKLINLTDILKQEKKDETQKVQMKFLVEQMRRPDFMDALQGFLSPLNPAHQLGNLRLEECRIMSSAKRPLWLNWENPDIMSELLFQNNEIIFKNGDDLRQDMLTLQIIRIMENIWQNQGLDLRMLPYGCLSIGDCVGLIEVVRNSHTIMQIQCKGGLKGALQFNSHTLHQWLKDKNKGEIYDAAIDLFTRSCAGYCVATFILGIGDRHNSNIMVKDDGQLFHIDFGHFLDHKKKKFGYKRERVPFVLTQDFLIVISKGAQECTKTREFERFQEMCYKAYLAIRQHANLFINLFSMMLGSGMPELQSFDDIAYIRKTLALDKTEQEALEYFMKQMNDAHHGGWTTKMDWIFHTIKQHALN
Chain of PI3Kα (P27986 whole entry partner): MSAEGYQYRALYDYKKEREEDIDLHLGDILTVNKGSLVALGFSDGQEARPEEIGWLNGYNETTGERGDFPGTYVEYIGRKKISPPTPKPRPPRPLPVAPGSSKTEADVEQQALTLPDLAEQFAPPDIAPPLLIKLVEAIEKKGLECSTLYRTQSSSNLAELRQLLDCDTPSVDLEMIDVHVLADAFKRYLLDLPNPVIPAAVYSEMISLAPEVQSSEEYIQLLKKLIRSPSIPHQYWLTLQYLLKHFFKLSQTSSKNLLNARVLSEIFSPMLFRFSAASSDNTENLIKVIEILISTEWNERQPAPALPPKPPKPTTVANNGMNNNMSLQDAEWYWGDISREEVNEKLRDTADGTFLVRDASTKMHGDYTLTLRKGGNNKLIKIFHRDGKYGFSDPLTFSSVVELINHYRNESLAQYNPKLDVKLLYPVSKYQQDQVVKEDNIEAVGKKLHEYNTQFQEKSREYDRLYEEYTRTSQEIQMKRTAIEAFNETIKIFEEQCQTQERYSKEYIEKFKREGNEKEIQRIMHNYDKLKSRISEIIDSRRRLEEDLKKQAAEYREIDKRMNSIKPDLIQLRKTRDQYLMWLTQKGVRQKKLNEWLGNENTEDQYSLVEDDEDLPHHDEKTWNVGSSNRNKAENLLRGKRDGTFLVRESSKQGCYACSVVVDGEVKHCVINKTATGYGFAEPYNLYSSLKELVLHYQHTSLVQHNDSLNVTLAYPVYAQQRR

Chain of PI3Kγ (P48736 whole entry, canonical isoform): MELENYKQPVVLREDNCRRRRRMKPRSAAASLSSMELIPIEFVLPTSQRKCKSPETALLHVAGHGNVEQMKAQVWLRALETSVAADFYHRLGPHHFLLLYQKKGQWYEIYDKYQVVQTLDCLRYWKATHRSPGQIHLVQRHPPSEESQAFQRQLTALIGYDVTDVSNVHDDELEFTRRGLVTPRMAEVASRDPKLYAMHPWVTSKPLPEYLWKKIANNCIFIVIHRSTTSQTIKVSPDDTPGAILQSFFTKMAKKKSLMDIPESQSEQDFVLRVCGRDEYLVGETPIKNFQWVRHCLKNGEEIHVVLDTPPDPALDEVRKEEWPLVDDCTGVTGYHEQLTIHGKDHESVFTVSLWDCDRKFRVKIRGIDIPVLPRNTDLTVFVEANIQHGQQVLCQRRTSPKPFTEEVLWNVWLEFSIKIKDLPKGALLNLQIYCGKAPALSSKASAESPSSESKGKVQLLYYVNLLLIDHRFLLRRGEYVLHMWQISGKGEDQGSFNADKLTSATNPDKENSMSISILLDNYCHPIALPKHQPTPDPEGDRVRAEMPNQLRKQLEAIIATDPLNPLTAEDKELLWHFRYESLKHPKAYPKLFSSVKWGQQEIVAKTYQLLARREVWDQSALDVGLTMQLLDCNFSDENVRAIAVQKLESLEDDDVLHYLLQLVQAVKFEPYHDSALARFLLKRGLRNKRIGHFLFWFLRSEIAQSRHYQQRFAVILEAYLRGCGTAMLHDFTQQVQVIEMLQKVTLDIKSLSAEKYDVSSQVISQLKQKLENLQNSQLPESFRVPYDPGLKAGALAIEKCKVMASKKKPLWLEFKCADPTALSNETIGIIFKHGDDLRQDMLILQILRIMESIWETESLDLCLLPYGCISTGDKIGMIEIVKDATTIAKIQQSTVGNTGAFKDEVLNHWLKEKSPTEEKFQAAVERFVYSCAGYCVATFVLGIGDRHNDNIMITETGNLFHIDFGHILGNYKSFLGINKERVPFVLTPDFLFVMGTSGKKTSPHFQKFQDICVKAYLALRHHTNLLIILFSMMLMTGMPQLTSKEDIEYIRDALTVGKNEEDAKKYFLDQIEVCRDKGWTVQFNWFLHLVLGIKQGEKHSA
Chain of PI3Kβ (P42338 whole entry, canonical isoform): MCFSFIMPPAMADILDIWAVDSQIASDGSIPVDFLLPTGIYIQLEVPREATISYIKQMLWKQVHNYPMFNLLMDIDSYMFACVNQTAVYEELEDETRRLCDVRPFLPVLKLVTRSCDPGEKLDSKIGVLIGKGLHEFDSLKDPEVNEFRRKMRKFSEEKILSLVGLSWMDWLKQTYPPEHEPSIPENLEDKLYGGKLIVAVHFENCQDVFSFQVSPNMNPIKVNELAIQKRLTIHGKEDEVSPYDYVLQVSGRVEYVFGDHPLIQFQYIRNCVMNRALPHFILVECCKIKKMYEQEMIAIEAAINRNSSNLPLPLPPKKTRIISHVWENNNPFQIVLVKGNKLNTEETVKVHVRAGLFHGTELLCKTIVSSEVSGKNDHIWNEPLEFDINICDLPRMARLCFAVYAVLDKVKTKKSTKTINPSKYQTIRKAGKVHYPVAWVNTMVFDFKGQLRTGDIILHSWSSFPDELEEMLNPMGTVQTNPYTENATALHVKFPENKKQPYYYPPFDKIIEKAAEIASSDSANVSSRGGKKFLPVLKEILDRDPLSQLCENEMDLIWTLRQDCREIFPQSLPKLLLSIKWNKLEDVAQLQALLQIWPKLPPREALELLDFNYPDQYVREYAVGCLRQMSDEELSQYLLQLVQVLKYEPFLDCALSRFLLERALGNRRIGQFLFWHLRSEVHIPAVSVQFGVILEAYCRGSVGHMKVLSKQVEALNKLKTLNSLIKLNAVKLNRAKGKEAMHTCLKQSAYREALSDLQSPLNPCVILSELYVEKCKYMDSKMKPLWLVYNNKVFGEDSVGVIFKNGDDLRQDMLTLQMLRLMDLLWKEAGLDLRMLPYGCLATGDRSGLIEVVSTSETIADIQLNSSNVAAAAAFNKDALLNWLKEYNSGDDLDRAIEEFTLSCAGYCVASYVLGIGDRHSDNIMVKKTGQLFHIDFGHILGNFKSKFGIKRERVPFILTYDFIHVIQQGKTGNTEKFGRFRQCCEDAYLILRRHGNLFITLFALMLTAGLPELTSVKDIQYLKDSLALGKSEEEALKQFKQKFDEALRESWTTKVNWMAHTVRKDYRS
Chain of PI3Kβ (P27986 whole entry partner, canonical isoform): as the sequence (P27986 whole entry partner) above
Chain of PI3Kδ (O00329 whole entry, canonical isoform): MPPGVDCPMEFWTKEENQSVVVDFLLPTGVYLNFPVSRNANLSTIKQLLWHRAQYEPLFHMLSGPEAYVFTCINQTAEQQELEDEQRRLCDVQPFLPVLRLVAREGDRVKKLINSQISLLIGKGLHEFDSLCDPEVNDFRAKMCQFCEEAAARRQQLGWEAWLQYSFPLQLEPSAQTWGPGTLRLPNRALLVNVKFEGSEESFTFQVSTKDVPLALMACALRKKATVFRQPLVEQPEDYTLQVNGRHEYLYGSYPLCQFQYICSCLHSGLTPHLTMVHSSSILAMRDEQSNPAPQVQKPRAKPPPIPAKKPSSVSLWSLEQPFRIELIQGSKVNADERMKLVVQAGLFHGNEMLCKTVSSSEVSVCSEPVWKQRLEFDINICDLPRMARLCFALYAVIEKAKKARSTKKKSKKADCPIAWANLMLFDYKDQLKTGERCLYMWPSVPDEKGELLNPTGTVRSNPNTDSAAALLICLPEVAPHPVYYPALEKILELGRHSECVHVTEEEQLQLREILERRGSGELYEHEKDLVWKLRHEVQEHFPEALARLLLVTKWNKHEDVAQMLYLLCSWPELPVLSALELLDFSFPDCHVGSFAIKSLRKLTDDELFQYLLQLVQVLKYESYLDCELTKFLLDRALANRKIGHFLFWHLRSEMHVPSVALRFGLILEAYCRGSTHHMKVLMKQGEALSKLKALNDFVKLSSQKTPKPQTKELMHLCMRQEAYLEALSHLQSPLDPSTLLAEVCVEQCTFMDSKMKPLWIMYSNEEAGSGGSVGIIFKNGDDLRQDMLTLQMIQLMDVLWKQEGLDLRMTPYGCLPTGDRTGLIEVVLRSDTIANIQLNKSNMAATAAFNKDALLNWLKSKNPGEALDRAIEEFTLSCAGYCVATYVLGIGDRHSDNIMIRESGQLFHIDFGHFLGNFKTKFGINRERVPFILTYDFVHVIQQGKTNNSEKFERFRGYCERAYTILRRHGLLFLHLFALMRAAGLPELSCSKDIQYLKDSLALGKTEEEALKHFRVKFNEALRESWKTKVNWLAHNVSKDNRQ
Chain of PI3Kδ (P27986 whole entry partner, canonical isoform): as the sequence (P27986 whole entry partner) above

| SMILES | SI (mTOR/PI3Kα Ratio) (mTOR) | IC50 (PI3Kβ) [µM] | IC50 (PI3Kγ) [µM] | IC50 (PI3Kδ) [µM] | fold reduction in the PI3Kα inhibition level (PI3Kα; C-7 hydroxymethyl compared with chlorine or methyl derivatives 5 and 6) [fold] | IC50 (PI3Kα) [µM] | IC50 [1] [µM] | IC50 (normal human fibroblast) [µM] |
| --- | --- | --- | --- | --- | --- | --- | --- | --- |
| Oc1cccc(-c2nc(N3CCOCC3)c3ncc(Cl)cc3n2)c1 [Compound 5, 7-Chloro-2-(3-hydroxyphenyl)-4-morpholinylpyrido[3,2-d]pyrimidine] |  |  |  |  |  |  | > 25 | > 25 |
| [N-]=[N+]=NCc1cnc2c(N3CCOCC3)nc(-c3cccc(O)c3)nc2c1 [Compound 19, 3-(7-(Azidomethyl)-4-morpholinylpyrido[3,2-d]pyrimidin-2-yl)phenol] |  |  |  |  |  |  | > 25 | > 25 |
| COCc1cn(Cc2cnc3c(N4CCOCC4)nc(-c4cccc(O)c4)nc3c2)nn1 [Compound 21, 3-(7-((4-(Methoxymethyl)-1H-1.2.3-triazol-1-yl)methyl)-4-morpholinylpyrido[3,2-d]pyrimidin-2-yl)phenol] |  | 0.05 | 2 | 1.2 |  | 0.01 |  | > 25 |

The next lines start with results.

| SI (mTOR/PI3Kα Ratio) (mTOR) | IC50 (PI3Kβ) [µM] | IC50 (PI3Kγ) [µM] | IC50 (PI3Kδ) [µM] | fold reduction in the PI3Kα inhibition level (PI3Kα; C-7 hydroxymethyl compared with chlorine or methyl derivatives 5 and 6) [fold] | IC50 (PI3Kα) [µM] | SMILES | IC50 [1] [µM] | IC50 (normal human fibroblast) [µM] |
| --- | --- | --- | --- | --- | --- | --- | --- | --- |
| 4.6 | 0.45 | 5.5 | 1.4 |  |  | Cc1cnc2c(N3CCOCC3)nc(-c3cccc(O)c3)nc2c1 [Compound 6, 3-(7-Methyl-4-morpholinylpyrido[3,2-d]pyrimidin-2-yl)phenol] |  |  |
|  |  |  |  | 30 |  | OCc1cnc2c(N3CCOCC3)nc(-c3cccc(O)c3)nc2c1 [Compound 15, 3-(7-(Hydroxymethyl)-4-morpholinylpyrido[3,2-d]pyrimidin-2-yl)phenol] |  |  |
| 33.3 |  |  |  |  | 0.003 | CO/N=C/c1cnc2c(N3CCOCC3)nc(-c3cccc(O)c3)nc2c1 [Compound 32, 2-(3-Hydroxyphenyl)-4-morpholinylpyrido[3,2-d]pyrimidine-7-carbaldehyde O-methyl oxime] | > 25 |  |
